Tests used:
FAK [1] = target: T1, FAK (Homo sapiens, UniProt Q05397); assay: Competitive MST assay, labeled STP-FAK complex titrated with another inhibitor; format: binding; details: labeled STP (40 µM) in complex with FAK (40 nM)
Method: Microscale thermophoresis was performed with the instrument Monolith NT.115, capillaries and MO.Control Software from Nanotemper Technologies, Munich, Germany. For each experiment, 16 capillaries were filled with a sample solution. […] The fluorescence of a specific area of each capillary was measured prior and during the thermophoresis experiment. For a better comparability, the fluorescence intensity obtained during the measurement was normalized to the fluorescence in each capillary recorded prior to the start of the experiment.

PKA in the protein mix = assay: 1-lambda reflectometry inhibitor screening on spotted sensor array, protein mix; format: binding, bovine; details: for order of binding affinity by color change of the spots (naked eye): protein mix 50 µg/mL, image after association, Fig. 5a; for increase of the average relative signal: protein mix, sensograms Fig. 5c, immobilized inhibitor spot
Method: (§1) • Manual spotting: the inhibitor dissolved in DMSO (1 mg/mL) was dropped to the measurement region on the transducer by pipetting. The immobilization process was as specified above. • Automatic spotting: the inhibitor dissolved in DMSO (1 mg/mL) was dropped to the measurement region on the transducer via the ceramic pin of the spotter. The droplets were dried under ambient conditions, and the process was repeated twice. After drying the last droplet, the transducer was prepared for measurements or stored at 4°C.
(§2) Screening was performed with 1-lambda reflectometry and transducers on which different inhibitors were spotted in the measurement area. The measurement protocols were the same as for the single assays.
One region per row was set as the reference ROI void of inhibitor.

FAK [2] = target: T1, FAK; assay: 1-lambda reflectometry inhibitor screening on spotted sensor array, FAK; format: binding; details: sensograms Fig. 5c; for order regarding the strength of the association: FAK as kinase sample
Method: as §1, §2

[3] = target: protein mix containing cAMP-dependent protein kinase (PKA) (Bos taurus, UniProt P00517); assay: 1-lambda reflectometry single assays, protein mix flushed over immobilized inhibitor, kinetic evaluation; details: read-out: dissociation rate constant kd

T1 sequence (Q05397 410-689, species assumed): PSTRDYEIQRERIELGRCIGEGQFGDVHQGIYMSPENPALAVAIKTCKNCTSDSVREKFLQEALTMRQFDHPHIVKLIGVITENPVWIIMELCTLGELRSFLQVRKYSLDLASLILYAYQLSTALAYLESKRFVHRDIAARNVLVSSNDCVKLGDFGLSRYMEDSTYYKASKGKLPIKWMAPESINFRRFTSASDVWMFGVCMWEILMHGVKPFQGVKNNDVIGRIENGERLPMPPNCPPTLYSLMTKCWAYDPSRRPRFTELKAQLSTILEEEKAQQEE

| Structure (SMILES) | order of binding affinity by color change of the spots (naked eye) (PKA in the protein mix) | koff [3] | increase of the relative signal (FAK [2]; FAK, immobilized inhibitor spot) | shape of dose-response curve in competitive MST (FAK [1]) | increase of the average relative signal (PKA in the protein mix) | order regarding the strength of the association (FAK [2]) |
| --- | --- | --- | --- | --- | --- | --- |
| Cl.Cn1cc(C2=C(c3c4n(c5ccccc35)CCC(CN)C4)C(=O)NC2=O)c2ccccc21 (centres unmarked) [BisX, Bisindolylmaleimide X] | – | – | – | the slope was inversed compared to the one of the direct assays | – | – |
| CN[C@@H]1C[C@H]2O[C@@](C)([C@@H]1OC)n1c3ccccc3c3c4c(c5c6ccccc6n2c5c31)C(=O)NC4 [STP, Staurosporine] | imatinib > fragment2 > fragment1 > STP | – | – | – | – | – |
| COc1ccc(-c2cc(N)[nH]n2)cc1Cl [fragment1] | imatinib > fragment2 > fragment1 > STP | 0.007 s⁻¹ | – | – | – | STP > imatinib > fasudil > fragment2 > fragment1 |

Continued, in another order:

| order of binding affinity by color change of the spots (naked eye) (PKA in the protein mix) | koff [3] | increase of the relative signal (FAK [2]; FAK, immobilized inhibitor spot) | Structure (SMILES) | shape of dose-response curve in competitive MST (FAK [1]) | increase of the average relative signal (PKA in the protein mix) | order regarding the strength of the association (FAK [2]) |
| --- | --- | --- | --- | --- | --- | --- |
| strongest color change | – | – | O=S(=O)(c1cccc2cnccc12)N1CCCNCC1 [fasudil] | – | 1.7% | STP > imatinib > fasudil > fragment2 > fragment1 |
| imatinib > fragment2 > fragment1 > STP | – | – | Nc1ncnc(Nc2ccc(F)cc2)n1 [fragment2] | – | – | STP > imatinib > fasudil > fragment2 > fragment1 |
| imatinib > fragment2 > fragment1 > STP | – | 0.13% | Cc1ccc(NC(=O)c2ccc(CN3CCN(C)CC3)cc2)cc1Nc1nccc(-c2cccnc2)n1 [imatinib] | – | 0.84% | STP > imatinib > fasudil > fragment2 > fragment1 |

Source: PMC12680756, “Reflectometric-based sensor arrays for the screening of kinase-inhibitor interactions and kinetic determination” (Analytical and Bioanalytical Chemistry, 2025)
